Reference: the kinase profiling compilation of Christmann-Franck et al. (2016)

Legend:
Assay in all cases: Caliper, Mobility shift assay off-chip
[1] = molecular target: TEK (human) (UniProt Q02763)
[2] = molecular target: KIT (human) (UniProt P10721)
[3] = molecular target: CAMK4 (human) (UniProt Q16566)
[4] = molecular target: CDC42BPA (human) (UniProt Q5VT25)
[5] = molecular target: STK24 (human) (UniProt Q9Y6E0)
[6] = molecular target: FGFR2 (human) (UniProt P21802)
[7] = molecular target: MST4 (human) (UniProt Q9P289)
[8] = molecular target: ROCK1 (human) (UniProt Q13464)
[9] = molecular target: EPHB3 (human) (UniProt P54753)
[10] = molecular target: AURKA (human) (UniProt O14965)
[11] = molecular target: CSNK1G2 (human) (UniProt P78368)
[12] = molecular target: SLK (human) (UniProt Q9H2G2)
[13] = molecular target: BMX (human) (UniProt P51813)
[14] = molecular target: TBK1 (human) (UniProt Q9UHD2)
[15] = molecular target: DCLK2 (human) (UniProt Q8N568)
Sequence of DCLK2 (human) (Q8N568 whole entry, looked up): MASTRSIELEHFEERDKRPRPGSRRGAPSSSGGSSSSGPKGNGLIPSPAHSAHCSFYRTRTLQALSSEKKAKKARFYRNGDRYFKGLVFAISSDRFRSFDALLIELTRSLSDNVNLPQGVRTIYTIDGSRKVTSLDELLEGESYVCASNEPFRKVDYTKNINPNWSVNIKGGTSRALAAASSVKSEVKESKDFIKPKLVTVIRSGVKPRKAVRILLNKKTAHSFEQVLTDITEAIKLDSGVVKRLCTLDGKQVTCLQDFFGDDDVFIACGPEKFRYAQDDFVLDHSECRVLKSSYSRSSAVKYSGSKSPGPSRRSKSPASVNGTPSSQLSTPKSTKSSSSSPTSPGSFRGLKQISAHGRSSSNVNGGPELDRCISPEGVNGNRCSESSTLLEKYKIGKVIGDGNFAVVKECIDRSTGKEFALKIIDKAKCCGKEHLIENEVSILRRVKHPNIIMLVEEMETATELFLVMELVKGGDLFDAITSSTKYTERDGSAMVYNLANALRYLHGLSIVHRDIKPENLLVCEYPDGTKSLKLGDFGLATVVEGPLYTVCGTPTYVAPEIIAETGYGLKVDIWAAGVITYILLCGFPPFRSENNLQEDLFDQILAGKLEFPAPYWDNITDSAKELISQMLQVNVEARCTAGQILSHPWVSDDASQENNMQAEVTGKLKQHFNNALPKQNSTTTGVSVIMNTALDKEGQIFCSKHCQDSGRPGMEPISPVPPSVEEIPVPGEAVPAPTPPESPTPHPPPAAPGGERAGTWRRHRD

[16] = molecular target: STK10 (human) (UniProt O94804)
[17] = molecular target: IRAK1 (human) (UniProt P51617)
Sequence of IRAK1 (human) (P51617 whole entry, looked up): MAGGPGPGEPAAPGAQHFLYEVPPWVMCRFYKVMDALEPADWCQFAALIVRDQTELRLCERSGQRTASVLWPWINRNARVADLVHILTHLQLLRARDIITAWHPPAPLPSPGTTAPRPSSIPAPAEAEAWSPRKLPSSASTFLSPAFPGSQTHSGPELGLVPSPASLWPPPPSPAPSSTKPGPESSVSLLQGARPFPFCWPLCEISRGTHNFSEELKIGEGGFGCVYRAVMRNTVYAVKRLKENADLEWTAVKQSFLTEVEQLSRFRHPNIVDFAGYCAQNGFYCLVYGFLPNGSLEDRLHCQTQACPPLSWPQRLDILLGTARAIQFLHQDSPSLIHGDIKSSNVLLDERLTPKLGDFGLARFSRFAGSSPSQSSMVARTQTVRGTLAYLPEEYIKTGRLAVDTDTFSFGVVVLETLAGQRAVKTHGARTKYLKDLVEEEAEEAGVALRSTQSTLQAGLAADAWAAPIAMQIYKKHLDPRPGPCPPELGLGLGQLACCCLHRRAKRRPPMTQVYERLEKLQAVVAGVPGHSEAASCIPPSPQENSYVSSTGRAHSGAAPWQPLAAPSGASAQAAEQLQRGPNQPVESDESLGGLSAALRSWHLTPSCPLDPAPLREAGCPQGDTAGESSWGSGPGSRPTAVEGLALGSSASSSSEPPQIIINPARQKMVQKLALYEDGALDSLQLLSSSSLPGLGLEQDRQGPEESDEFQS

[18] = molecular target: MKNK2 (human) (UniProt Q9HBH9)
Sequence of MKNK2 (human) (Q9HBH9 whole entry, looked up): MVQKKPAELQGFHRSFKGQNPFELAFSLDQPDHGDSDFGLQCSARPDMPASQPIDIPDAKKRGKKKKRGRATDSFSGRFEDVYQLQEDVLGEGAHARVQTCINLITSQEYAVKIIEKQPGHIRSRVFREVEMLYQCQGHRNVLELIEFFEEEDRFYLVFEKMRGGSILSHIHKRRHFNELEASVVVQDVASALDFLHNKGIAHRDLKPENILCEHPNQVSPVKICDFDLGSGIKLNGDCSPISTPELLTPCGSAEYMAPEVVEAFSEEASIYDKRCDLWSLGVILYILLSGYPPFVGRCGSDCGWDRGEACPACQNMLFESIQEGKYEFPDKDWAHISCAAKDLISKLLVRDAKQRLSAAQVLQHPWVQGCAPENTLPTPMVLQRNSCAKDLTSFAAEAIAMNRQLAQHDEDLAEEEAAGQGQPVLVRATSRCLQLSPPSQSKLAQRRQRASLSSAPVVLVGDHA

[19] = molecular target: PRKD3 (human) (UniProt O94806)
[20] = molecular target: JAK2 JH1 JH2 (human) (UniProt O60674)
[21] = molecular target: MAPK10 (human) (UniProt P53779)
[22] = molecular target: EPHA6 (human) (UniProt Q9UF33)
[23] = molecular target: HIPK3 (human) (UniProt Q9H422)
[24] = molecular target: TNK2 (human) (UniProt Q07912)
[25] = molecular target: MET (human) (UniProt P08581); conditions: compound 0.001 µM
[26] = molecular target: PIM1 (human) (UniProt P11309)
[27] = molecular target: ALK NPM1 (human) (UniProt P06748+Q9UM73)
[28] = molecular target: PBK (human) (UniProt Q96KB5)
[29] = molecular target: PIK3CA PIK3R1 (human) (UniProt P27986+P42336)
Sequence of PIK3CA PIK3R1 (human) (P27986 whole entry, looked up): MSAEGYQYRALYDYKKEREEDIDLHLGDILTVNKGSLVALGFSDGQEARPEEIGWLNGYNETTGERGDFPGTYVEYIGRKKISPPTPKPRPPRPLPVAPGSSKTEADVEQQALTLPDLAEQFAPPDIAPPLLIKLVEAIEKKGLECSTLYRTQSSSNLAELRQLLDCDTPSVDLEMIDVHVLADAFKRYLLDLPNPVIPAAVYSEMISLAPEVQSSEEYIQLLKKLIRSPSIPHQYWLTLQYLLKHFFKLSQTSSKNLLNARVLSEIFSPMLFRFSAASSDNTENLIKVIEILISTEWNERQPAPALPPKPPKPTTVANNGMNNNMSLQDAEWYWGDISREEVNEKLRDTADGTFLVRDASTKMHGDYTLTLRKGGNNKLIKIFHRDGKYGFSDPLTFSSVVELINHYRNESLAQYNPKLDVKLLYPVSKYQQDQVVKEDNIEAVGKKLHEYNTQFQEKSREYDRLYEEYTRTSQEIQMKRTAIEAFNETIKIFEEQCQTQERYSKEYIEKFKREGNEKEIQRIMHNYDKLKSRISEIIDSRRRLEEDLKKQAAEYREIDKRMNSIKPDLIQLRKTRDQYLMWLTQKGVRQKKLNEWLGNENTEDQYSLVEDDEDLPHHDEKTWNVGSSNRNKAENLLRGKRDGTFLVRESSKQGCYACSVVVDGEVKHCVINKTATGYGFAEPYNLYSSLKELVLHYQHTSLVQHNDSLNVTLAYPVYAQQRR
Sequence of PIK3CA PIK3R1 (human) (P42336 whole entry, looked up): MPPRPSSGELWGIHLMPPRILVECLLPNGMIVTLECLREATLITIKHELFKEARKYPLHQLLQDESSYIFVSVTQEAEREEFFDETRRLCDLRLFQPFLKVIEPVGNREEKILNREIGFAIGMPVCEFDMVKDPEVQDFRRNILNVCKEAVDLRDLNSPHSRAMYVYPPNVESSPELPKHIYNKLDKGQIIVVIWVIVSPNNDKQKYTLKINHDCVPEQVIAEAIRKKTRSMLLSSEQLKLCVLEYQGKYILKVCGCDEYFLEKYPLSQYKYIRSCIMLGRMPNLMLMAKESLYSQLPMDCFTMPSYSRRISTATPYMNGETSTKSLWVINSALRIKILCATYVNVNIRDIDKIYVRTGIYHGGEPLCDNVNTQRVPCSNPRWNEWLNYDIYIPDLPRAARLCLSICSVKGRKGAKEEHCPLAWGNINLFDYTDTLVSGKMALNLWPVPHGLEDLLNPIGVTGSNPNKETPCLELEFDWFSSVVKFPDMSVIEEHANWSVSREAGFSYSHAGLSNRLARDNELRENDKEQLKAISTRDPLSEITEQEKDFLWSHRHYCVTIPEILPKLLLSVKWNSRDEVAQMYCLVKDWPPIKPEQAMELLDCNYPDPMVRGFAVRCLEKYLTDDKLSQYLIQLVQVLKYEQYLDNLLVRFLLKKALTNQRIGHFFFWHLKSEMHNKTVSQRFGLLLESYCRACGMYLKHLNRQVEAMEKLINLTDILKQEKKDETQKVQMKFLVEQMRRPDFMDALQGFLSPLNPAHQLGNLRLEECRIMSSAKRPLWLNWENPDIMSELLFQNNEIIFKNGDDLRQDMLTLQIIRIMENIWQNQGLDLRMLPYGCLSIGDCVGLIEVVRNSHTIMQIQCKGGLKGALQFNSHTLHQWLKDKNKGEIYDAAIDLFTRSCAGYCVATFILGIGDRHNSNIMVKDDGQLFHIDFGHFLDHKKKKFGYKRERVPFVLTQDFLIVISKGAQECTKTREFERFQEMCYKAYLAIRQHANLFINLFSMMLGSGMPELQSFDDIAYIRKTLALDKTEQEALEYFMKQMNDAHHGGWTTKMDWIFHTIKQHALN

[30] = molecular target: MKNK1 (human) (UniProt Q9BUB5)
[31] = molecular target: LATS2 (human) (UniProt Q9NRM7)
[32] = molecular target: PRKCH (human) (UniProt P24723)
[33] = molecular target: MAP4K4 (human) (UniProt O95819)
[34] = molecular target: RPS6KA3 KD1 KD2 (human) (UniProt P51812)

Sequence of CAMK4 (human) (Q16566 whole entry, looked up): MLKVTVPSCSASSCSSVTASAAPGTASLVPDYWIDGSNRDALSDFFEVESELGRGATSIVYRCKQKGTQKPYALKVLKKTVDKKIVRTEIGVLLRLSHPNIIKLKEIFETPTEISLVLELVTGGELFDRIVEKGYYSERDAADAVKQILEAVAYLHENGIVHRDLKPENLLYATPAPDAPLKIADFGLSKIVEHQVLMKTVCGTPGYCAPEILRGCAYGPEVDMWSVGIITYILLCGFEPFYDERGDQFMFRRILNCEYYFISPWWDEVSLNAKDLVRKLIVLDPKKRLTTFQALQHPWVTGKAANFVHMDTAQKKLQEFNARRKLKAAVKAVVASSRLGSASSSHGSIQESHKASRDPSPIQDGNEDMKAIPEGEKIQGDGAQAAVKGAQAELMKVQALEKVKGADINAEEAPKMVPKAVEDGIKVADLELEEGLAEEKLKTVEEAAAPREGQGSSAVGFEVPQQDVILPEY
Sequence of FGFR2 (human) (P21802 whole entry, looked up): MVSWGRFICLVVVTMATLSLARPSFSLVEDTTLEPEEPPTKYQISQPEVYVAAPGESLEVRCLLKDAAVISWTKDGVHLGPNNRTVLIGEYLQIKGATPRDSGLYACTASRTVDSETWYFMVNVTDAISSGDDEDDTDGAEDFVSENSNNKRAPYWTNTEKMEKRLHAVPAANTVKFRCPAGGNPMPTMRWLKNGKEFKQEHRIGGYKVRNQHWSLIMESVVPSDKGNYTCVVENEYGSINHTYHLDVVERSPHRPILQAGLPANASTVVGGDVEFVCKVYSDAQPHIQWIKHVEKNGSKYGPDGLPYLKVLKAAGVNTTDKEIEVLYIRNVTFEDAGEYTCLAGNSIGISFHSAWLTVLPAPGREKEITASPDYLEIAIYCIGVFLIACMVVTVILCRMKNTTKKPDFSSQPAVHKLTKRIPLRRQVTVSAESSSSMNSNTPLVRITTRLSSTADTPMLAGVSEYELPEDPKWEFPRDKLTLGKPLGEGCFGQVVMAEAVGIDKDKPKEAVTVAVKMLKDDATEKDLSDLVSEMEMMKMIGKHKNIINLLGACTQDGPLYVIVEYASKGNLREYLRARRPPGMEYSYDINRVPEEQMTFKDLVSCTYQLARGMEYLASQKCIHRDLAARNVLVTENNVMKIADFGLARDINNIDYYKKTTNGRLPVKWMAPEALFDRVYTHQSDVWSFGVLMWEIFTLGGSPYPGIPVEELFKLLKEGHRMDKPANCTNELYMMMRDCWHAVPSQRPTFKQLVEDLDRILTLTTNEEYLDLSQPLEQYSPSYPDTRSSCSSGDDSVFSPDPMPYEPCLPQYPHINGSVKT

CNC(=O)c1ccccc1Sc1ccc2c(/C=C/c3ccccn3)n[nH]c2c1
inhibition ([1]; compound 0.001 µM): -9%
inhibition ([1]; compound 0.02 µM): -4.9%
inhibition ([2]; compound 0.001 µM): 37.8%
inhibition ([2]; compound 0.02 µM): 70.5%
inhibition ([3]; compound 0.001 µM): -4%
inhibition ([3]; compound 0.02 µM): -4.7%
inhibition ([4]; compound 0.001 µM): 4.2%
inhibition ([4]; compound 0.02 µM): 10.2%
inhibition ([5]; compound 0.001 µM): 2.8%
inhibition ([5]; compound 0.02 µM): -1.1%
inhibition ([6]; compound 0.001 µM): 10.6%
inhibition ([6]; compound 0.02 µM): 54.1%
inhibition ([7]; compound 0.001 µM): -4.6%
inhibition ([7]; compound 0.02 µM): -8%
inhibition ([8]; compound 0.001 µM): 5.8%
inhibition ([8]; compound 0.02 µM): 0.7%
inhibition ([9]; compound 0.001 µM): -8%
inhibition ([9]; compound 0.02 µM): -4.7%
inhibition ([10]; compound 0.001 µM): 13.3%
inhibition ([10]; compound 0.02 µM): 54.5%
inhibition ([11]; compound 0.001 µM): -2.9%
inhibition ([11]; compound 0.02 µM): -1.6%
inhibition ([12]; compound 0.001 µM): -5.4%
inhibition ([12]; compound 0.02 µM): 10.3%
inhibition ([13]; compound 0.001 µM): 7.1%
inhibition ([13]; compound 0.02 µM): 4.9%
inhibition ([14]; compound 0.001 µM): -3.3%
inhibition ([14]; compound 0.02 µM): -2%
inhibition ([15]; compound 0.001 µM): -2.7%
inhibition ([15]; compound 0.02 µM): -2.1%
inhibition ([16]; compound 0.001 µM): 6.2%
inhibition ([16]; compound 0.02 µM): 21.3%
inhibition ([17]; compound 0.001 µM): -12.5%
inhibition ([17]; compound 0.02 µM): 4.3%
inhibition ([18]; compound 0.001 µM): 0.4%
inhibition ([18]; compound 0.02 µM): 1.4%
inhibition ([19]; compound 0.001 µM): -4.3%
inhibition ([19]; compound 0.02 µM): -1.6%
inhibition ([20]; compound 0.001 µM): 2.5%
inhibition ([20]; compound 0.02 µM): 4.7%
inhibition ([21]; compound 0.001 µM): -5%
inhibition ([21]; compound 0.02 µM): -4.4%
inhibition ([22]; compound 0.02 µM): 0.3%
inhibition ([23]; compound 0.001 µM): -5.2%
inhibition ([23]; compound 0.02 µM): -1.1%
inhibition ([24]; compound 0.001 µM): -7.8%
inhibition ([24]; compound 0.02 µM): -8.8%
inhibition [25]: -2.4%
inhibition ([26]; compound 0.001 µM): -5.1%
inhibition ([26]; compound 0.02 µM): -3.4%
inhibition ([27]; compound 0.001 µM): 1.1%
inhibition ([27]; compound 0.02 µM): -0.3%
inhibition ([28]; compound 0.001 µM): -7.6%
inhibition ([28]; compound 0.02 µM): -7.4%
inhibition ([29]; compound 0.001 µM): 40.8%
inhibition ([29]; compound 0.02 µM): 40.7%
inhibition ([30]; compound 0.001 µM): -6.1%
inhibition ([30]; compound 0.02 µM): 4.1%
inhibition ([31]; compound 0.02 µM): -2.3%
inhibition ([32]; compound 0.001 µM): 4.5%
inhibition ([32]; compound 0.02 µM): 6.2%
inhibition ([33]; compound 0.001 µM): -2.3%
inhibition ([33]; compound 0.02 µM): 1.2%

Cc1ccc(Nc2nccc(N(C)c3ccc4c(C)n(C)nc4c3)n2)cc1S(N)(=O)=O
inhibition ([1]; compound 0.02 µM): -4.6%
inhibition ([1]; compound 0.2 µM): 2.7%
inhibition ([2]; compound 0.2 µM): 83%
inhibition ([3]; compound 0.02 µM): -2.8%
inhibition ([3]; compound 0.2 µM): -1.2%
inhibition ([4]; compound 0.02 µM): 13.3%
inhibition ([4]; compound 0.2 µM): 11%
inhibition ([5]; compound 0.02 µM): 0.2%
inhibition ([5]; compound 0.2 µM): 3.4%
inhibition ([6]; compound 0.02 µM): 29%
inhibition ([6]; compound 0.2 µM): 82.6%
inhibition ([7]; compound 0.02 µM): -9.1%
inhibition ([7]; compound 0.2 µM): -4%
inhibition ([8]; compound 0.02 µM): 1.7%
inhibition ([8]; compound 0.2 µM): 4.4%
inhibition ([9]; compound 0.02 µM): -6.1%
inhibition ([9]; compound 0.2 µM): -4%
inhibition ([10]; compound 0.02 µM): 11.5%
inhibition ([10]; compound 0.2 µM): 40.7%
inhibition ([11]; compound 0.02 µM): 1.7%
inhibition ([11]; compound 0.2 µM): 0.3%
inhibition ([12]; compound 0.02 µM): 9%
inhibition ([12]; compound 0.2 µM): 12.3%
inhibition ([13]; compound 0.02 µM): 6.9%
inhibition ([13]; compound 0.2 µM): 0.9%
inhibition ([14]; compound 0.02 µM): -0.2%
inhibition ([14]; compound 0.2 µM): -1.1%
inhibition ([15]; compound 0.02 µM): -1.2%
inhibition ([15]; compound 0.2 µM): -0.9%
inhibition ([16]; compound 0.02 µM): 8.8%
inhibition ([16]; compound 0.2 µM): 39.2%
inhibition ([17]; compound 0.02 µM): -17.4%
inhibition ([17]; compound 0.2 µM): -14.6%
inhibition ([18]; compound 0.02 µM): 2.7%
inhibition ([18]; compound 0.2 µM): 1.5%
inhibition ([19]; compound 0.02 µM): -1.6%
inhibition ([19]; compound 0.2 µM): 1.3%
inhibition ([20]; compound 0.02 µM): 4.8%
inhibition ([20]; compound 0.2 µM): 11.4%
inhibition ([22]; compound 0.02 µM): 3.8%
inhibition ([22]; compound 0.2 µM): 22.3%
inhibition ([23]; compound 0.02 µM): 2.3%
inhibition ([23]; compound 0.2 µM): 2.6%
inhibition ([24]; compound 0.02 µM): -5.7%
inhibition ([24]; compound 0.2 µM): -3.6%
inhibition ([34]; compound 0.02 µM): 0.7%
inhibition ([34]; compound 0.2 µM): 3.1%
inhibition ([26]; compound 0.02 µM): -4.2%
inhibition ([26]; compound 0.2 µM): 0.8%
inhibition ([27]; compound 0.02 µM): 2.8%
inhibition ([27]; compound 0.2 µM): 2.1%
inhibition ([28]; compound 0.02 µM): -3.9%
inhibition ([28]; compound 0.2 µM): -9.3%
inhibition ([29]; compound 0.02 µM): 64.2%
inhibition ([29]; compound 0.2 µM): 68.1%
inhibition ([30]; compound 0.02 µM): 6.1%
inhibition ([30]; compound 0.2 µM): 3.1%
inhibition ([31]; compound 0.02 µM): -2.1%
inhibition ([31]; compound 0.2 µM): -0.3%
inhibition ([32]; compound 0.02 µM): 6.7%
inhibition ([32]; compound 0.2 µM): 4.3%
inhibition ([33]; compound 0.02 µM): 3.9%
inhibition ([33]; compound 0.2 µM): 24.6%
